Results reported in ChEMBL document CHEMBL1201862, “PubChem BioAssay data set” (2004).
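These data come from cells grown in 96-well plates and exposed to compound for 48 hours at five concentrations. At the GI50, growth is halved.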 Active and inactive are the calls of the source. Rule as the data show it: active = GI50 up to about 1.1 µM and inactive = higher.

Key:
Test in all cases: NCI-60 cell line screen, 48 h
OVCAR-4 = test system: OVCAR-4
NCI-H460 = test system: NCI-H460
MDA-N = test system: MDA-N
NCI/ADR-RES = test system: NCI/ADR-RES
HCC 2998 = test system: HCC 2998
SR = test system: SR
SW-620 = test system: SW-620
NCI-H522 = test system: NCI-H522
RXF 393 = test system: RXF 393
A549 = test system: A549
UACC-257 = test system: UACC-257
SK-MEL-28 = test system: SK-MEL-28
U-251 = test system: U-251
TK-10 = test system: TK-10
OVCAR-5 = test system: OVCAR-5
CCRF-CEM = test system: CCRF-CEM
SK-MEL-5 = test system: SK-MEL-5
PC-3 = test system: PC-3
Hs-578T = test system: Hs-578T
SK-MEL-2 = test system: SK-MEL-2
UO-31 = test system: UO-31
BT-549 = test system: BT-549
MDA-MB-435 = test system: MDA-MB-435
SNB-19 = test system: SNB-19
DU-145 = test system: DU-145
NCI-H226 = test system: NCI-H226
HCT-15 = test system: HCT-15
KM12 = test system: KM12
IGROV-1 = test system: IGROV-1
HL-60 = test system: HL-60
SF-268 = test system: SF-268
SN12C = test system: SN12C
M14 = test system: M14
Malme-3M = test system: Malme-3M
K562 = test system: K562
SF-539 = test system: SF-539
A498 = test system: A498
SNB-75 = test system: SNB-75
NCI-H23 = test system: NCI-H23
HT-29 = test system: HT-29
HCT-116 = test system: HCT-116
EKVX = test system: EKVX
MCF7 = test system: MCF7
MDA-MB-231 = test system: MDA-MB-231
LOX IMVI = test system: LOX IMVI
OVCAR-8 = test system: OVCAR-8
786-0 = test system: 786-0
HOP-62 = test system: HOP-62
ACHN = test system: ACHN
T47D = test system: T47D
SF-295 = test system: SF-295
UACC-62 = test system: UACC-62
RPMI-8226 = test system: RPMI-8226
OVCAR-3 = test system: OVCAR-3
MOLT-4 = test system: MOLT-4
HOP-92 = test system: HOP-92
SK-OV-3 = test system: SK-OV-3
COLO 205 = test system: COLO 205
CAKI-1 = test system: CAKI-1

Compound: COC(=O)c1cc2c(cc1C(=O)OC)[C@@]1(C)CCCC(C)(C)C1CC2 (some centres undefined)
- GI50 (OVCAR-4): 22.4 µM (inactive)
- GI50 (NCI-H460): 20.3 µM (inactive)
- GI50 (MDA-N): 21.9 µM (inactive)
- GI50 (NCI/ADR-RES): 16.3 µM (inactive)
- GI50 (HCC 2998): 17.4 µM (inactive)
- GI50 (SR): 15.1 µM (inactive)
- GI50 (SW-620): 18.7 µM (inactive)
- GI50 (NCI-H522): 16.9 µM (inactive)
- GI50 (RXF 393): 10.1 µM (inactive)
- GI50 (A549): 19.4 µM (inactive)
- GI50 (UACC-257): 19.5 µM (inactive)
- GI50 (SK-MEL-28): 26.3 µM (inactive)
- GI50 (U-251): 18.4 µM (inactive)
- GI50 (TK-10): 19.5 µM (inactive)
- GI50 (OVCAR-5): 18.3 µM (inactive)
- GI50 (CCRF-CEM): 16.7 µM (inactive)
- GI50 (SK-MEL-5): 16.2 µM (inactive)
- GI50 (PC-3): 14.8 µM (inactive)
- GI50 (Hs-578T): 17.7 µM (inactive)
- GI50 (SK-MEL-2): 17.1 µM (inactive)
- GI50 (UO-31): 17.8 µM (inactive)
- GI50 (BT-549): 28.6 µM (inactive)
- GI50 (MDA-MB-435): 30.2 µM (inactive)
- GI50 (SNB-19): 23.7 µM (inactive)
- GI50 (DU-145): 14.1 µM (inactive)
- GI50 (NCI-H226): 17.4 µM (inactive)
- GI50 (HCT-15): 17.1 µM
- GI50 (KM12): 15.2 µM (inactive)
- GI50 (IGROV-1): 10.4 µM (inactive)
- GI50 (HL-60): 8.77 µM (inactive)
- GI50 (SF-268): 13.9 µM (inactive)
- GI50 (SN12C): 19.3 µM (inactive)
- GI50 (M14): 22.9 µM (inactive)
- GI50 (Malme-3M): 1.22 µM (inactive)
- GI50 (K562): 13.8 µM (inactive)
- GI50 (SF-539): 22 µM (inactive)
- GI50 (A498): 15.6 µM (inactive)
- GI50 (SNB-75): 30 µM (inactive)
- GI50 (NCI-H23): 30.5 µM (inactive)
- GI50 (HT-29): 15.6 µM (inactive)
- GI50 (HCT-116): 17.9 µM (inactive)
- GI50 (EKVX): 13.3 µM (inactive)
- GI50 (MCF7): 15 µM (inactive)
- GI50 (MDA-MB-231): 17.3 µM (inactive)
- GI50 (LOX IMVI): 18.1 µM (inactive)
- GI50 (OVCAR-8): 30.9 µM (inactive)
- GI50 (786-0): 19.5 µM (inactive)
- GI50 (HOP-62): 23.8 µM (inactive)
- GI50 (ACHN): 20.7 µM (inactive)
- GI50 (T47D): 0.508 µM (active)
- GI50 (SF-295): 16.3 µM (inactive)
- GI50 (UACC-62): 12.2 µM (inactive)
- GI50 (RPMI-8226): 10.7 µM (inactive)
- GI50 (OVCAR-3): 10.2 µM (inactive)
- GI50 (MOLT-4): 15.1 µM (inactive)
- GI50 (HOP-92): 9.91 µM (inactive)

Compound: CCCCCC(/C=C/C1CCC(=O)C1CC#C[Si](C)(C)C)OCc1ccccc1 (centres undefined)
- GI50 (OVCAR-4): 26.9 µM (inactive)
- GI50 (NCI-H460): 17 µM (inactive)
- GI50 (MDA-N): 21.1 µM (inactive)
- GI50 (NCI/ADR-RES): 14.5 µM (inactive)
- GI50 (HCC 2998): 17.9 µM (inactive)
- GI50 (SR): > 35 µM (inactive)
- GI50 (SW-620): 24 µM (inactive)
- GI50 (NCI-H522): 14 µM (inactive)
- GI50 (RXF 393): 13.9 µM (inactive)
- GI50 (A549): 21.5 µM (inactive)
- GI50 (UACC-257): 17.2 µM (inactive)
- GI50 (SK-OV-3): 41.2 µM (inactive)
- GI50 (SK-MEL-28): 23 µM (inactive)
- GI50 (U-251): 19 µM (inactive)
- GI50 (TK-10): 22.1 µM (inactive)
- GI50 (OVCAR-5): 19.9 µM (inactive)
- GI50 (CCRF-CEM): 10.5 µM (inactive)
- GI50 (SK-MEL-5): 13.2 µM (inactive)
- GI50 (PC-3): 17.3 µM (inactive)
- GI50 (Hs-578T): 17.9 µM (inactive)
- GI50 (SK-MEL-2): 15.5 µM (inactive)
- GI50 (UO-31): 15.5 µM (inactive)
- GI50 (BT-549): 17.3 µM (inactive)
- GI50 (MDA-MB-435): 19.9 µM (inactive)
- GI50 (SNB-19): 28.4 µM (inactive)
- GI50 (DU-145): 31.8 µM (inactive)
- GI50 (NCI-H226): 30.5 µM (inactive)
- GI50 (COLO 205): 19.2 µM (inactive)
- GI50 (HCT-15): 15.6 µM
- GI50 (KM12): 16.2 µM (inactive)
- GI50 (IGROV-1): 14.5 µM (inactive)
- GI50 (SF-268): 14.3 µM (inactive)
- GI50 (SN12C): 19.8 µM (inactive)
- GI50 (M14): 25 µM (inactive)
- GI50 (Malme-3M): 15.9 µM (inactive)
- GI50 (K562): 19.1 µM (inactive)
- GI50 (SF-539): 12.1 µM (inactive)
- GI50 (A498): 36.3 µM (inactive)
- GI50 (CAKI-1): 17.9 µM (inactive)
- GI50 (SNB-75): 16.6 µM (inactive)
- GI50 (NCI-H23): 22.2 µM (inactive)
- GI50 (HT-29): 16.3 µM (inactive)
- GI50 (HCT-116): 15.8 µM (inactive)
- GI50 (EKVX): 16.9 µM (inactive)
- GI50 (MCF7): 19.1 µM (inactive)
- GI50 (MDA-MB-231): 23.1 µM (inactive)
- GI50 (LOX IMVI): 15.7 µM (inactive)
- GI50 (OVCAR-8): 14.8 µM (inactive)
- GI50 (786-0): 14.6 µM (inactive)
- GI50 (HOP-62): 19.1 µM (inactive)
- GI50 (ACHN): 17.5 µM (inactive)
- GI50 (T47D): 23.2 µM (inactive)
- GI50 (SF-295): 17.1 µM (inactive)
- GI50 (UACC-62): 13.5 µM (inactive)
- GI50 (RPMI-8226): 14.7 µM (inactive)
- GI50 (OVCAR-3): 17.5 µM (inactive)
- GI50 (MOLT-4): > 37.8 µM (inactive)
- GI50 (HOP-92): 12.1 µM (inactive)
